Values joined by “and” are separate entries in the source; they are usually repeats but may differ in a detail not shown here. Equal entries are not always repeated.
Assays:
[1] = Photostability in macrogol formulations on PMMA plates (solar light simulator); format: physicochemical; settings: for % of Initial AUC / % of Initial SPFin vitro / % of Initial UVA PF: after 1 h irradiation at 500 W/m^2, formulation F1
Outline: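 Macrogol formulations (2% w/w) applied at 1.3 mg/cm² on PMMA plates were irradiated 1 h at 500 W/m² (218 kJ/m² UV) in a solar simulator with <290 nm cut-off and IR block. SPFin vitro, UVA PF and AUC were compared before and after exposure, with methanol washes analysed by UPLC-MS/MS, in duplicate.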

[2] = In vitro photoprotection study of 2% (w/w) macrogol formulations on PMMA plates; settings: for UVA PF / UVA/UVB Ratio / λc (critical wavelength): 2% (w/w) macrogol formulation F1 (Triacetin 4.8%); for SPFin vitro: 2% (w/w) macrogol formulation F1 (Tween 20, PEG-400, PEG-1500, Triacetin 4.8%)
Outline: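 Compounds at 2% in macrogol (PEG-400/PEG-1500) formulations, predissolved in triacetin:Tween 20 (1:9) or DMSO; 32.5 mg applied to 25 cm² PMMA plates (5 µm roughness), glycerin-treated plate as reference. Per EN ISO 24443:2012, modified: reflectance absorbance 290–400 nm in 1 nm steps, averaged over 12 scans.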

[3] = In vitro stability in mouse liver microsomes; format: in vitro ADME; settings: for ester hydrolysis in the presence of microsomes: independently of the presence of a NADPH-regenerating system; for Probable Transformation / half-life at 20 µM / microsomal CLint at 20 µM: mouse liver microsomes; for half-life at 20 µM / microsomal CLint at 20 µM: mouse; for half-life at 20 µM: pH 7.4, mouse liver microsomes 0.8 mg/mL, 20 µM compound, NADPH-regenerating system, 37 °C, read-out: t ½; for microsomal CLint at 20 µM: pH 7.4, mouse liver microsomes, calculated from t1/2
Outline: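 Compound (20 µM) with mouse liver microsomes (0.8 mg/mL), potassium phosphate pH 7.4, NADPH-regenerating system, 37 °C for 15–60 min; parent remaining by UPLC/MS, two repeats. t1/2 from ln % remaining versus time; Clint = (incubation volume/protein) × 0.693/t1/2.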

[4] = Ames MPF Penta 2 mutagenicity assay, overall verdict over all strains; format: cell-based, Salmonella typhimurium, Escherichia coli; settings: Salmonella typhimurium, Escherichia coli; 0.1, 0.2 and 0.5 mM, absence and presence of metabolic activation; read-out: fold induction over the baseline, any dose and strain
Description: (§1) Growth, exposure and indicator media, liver S9 fraction, S9-NADP, S9-G-6-P, positive control chemicals as well as Salmonella typhimurium and Escherichia coli strains were included in the kit from Xenometrix. According to the obtained results, there were no doses of test compounds 3b and 4g with more than a 2-fold induction over the baseline, and a dose dependent response was not observed both in the absence and presence of metabolic activation (Table S3). Therefore, compounds 3b and 4g were clearly non-mutagenic in the absence and presence of metabolic activation.

[5] = test system: Salmonella typhimurium and Escherichia coli strains; experiment: as above; format: cell-based; settings: in the absence and presence of metabolic activation
Description: as §1

SMILES	% of Initial AUC [1]	% of Initial SPFin vitro [1]	% of Initial UVA PF [1]	photostability (in words) ([1]; macrogol formulation)	photoisomer in post-irradiation chromatogram ([1]; macrogol formulation, UPLC-MS/MS)	new photoproduct (besides photoisomer), relative peak area ([1]; macrogol formulation, post-irradiation chromatogram)	UVA PF [2]	UVA/UVB Ratio [2]	λc (critical wavelength) [2]	SPFin vitro [2]	ester hydrolysis in the presence of microsomes [3]	Probable Transformation [3]	half-life at 20 µM [3]	microsomal CLint at 20 µM [3]	fold induction at 90 min [4]	mutagenicity (verdict in words) [5]
CCOC(=O)CN1C(=O)/C(=C/c2ccc(OC)cc2)N(CC(=O)OCC)C1=O [Compound 3b, Diethyl 2,2′-((Z)-4-(4-methoxybenzylidene)-2,5-dioxoimidazolidine-1,3-diyl)diacetate]	84.67% and 76.50%	80.46% and 72.69%	87.04% and 84.08%	very good	32.1%	2.4%	2.59 ± 0.23	0.84 ± 0.08	366 nm	3.07 ± 0.04	hydrolysed to monoesters	hydrolysis O-dealkylation	12 min	75 µL/min/mg	≤ 2	non-mutagenic
CCOC(=O)CN1C(=O)/C(=C/C=C/c2ccc(OC)cc2)N(CC(=O)OCC)C1=O [Compound 4g, Diethyl 2,2′-((Z)-4-((E)-3-(4-methoxyphenyl)allylidene)-2,5-dioxoimidazolidine-1,3-diyl)diacetate]	51.98%	86.29%	34.39%	favorable photostability	–	–	6.83 ± 0.05	4.50 ± 0.32	391 nm	1.68 ± 0.04	hydrolysed to monoesters	hydrolysis O-dealkylation	3 min	> 300 µL/min/mg	≤ 2	non-mutagenic

Reference: article PMC6630718, “Discovery of Novel UV-Filters with Favorable Safety Profiles in the 5-Arylideneimidazolidine-2,4-dione Derivatives Group” (Molecules, 2019)
